Where two headings read alike, the source gives them in different places.
What was measured:
Septoria tritici = experiment: In vivo preventive test on Septoria tritici (leaf spot on wheat); conditions: 500 ppm; wheat plants sprayed 24 hours before contamination; grading 21 to 28 days after contamination vs control plants
Method: Wheat plants (“Scipion” variety), sown in starter cups on a 50/50 peat soil-pozzolana substrate and grown at 22° C. (12 h)/20° C. (12 h), are treated at the 1-leaf stage (10 cm height) by spraying with the active ingredient prepared as described above. Plants, used as controls, are treated with the mixture of acetone/tween/DMSO/water not containing the active material. After 24 hours, the plants are contaminated by spraying the leaves with an aqueous suspension of cryopreserved Septoria tritici spores (500 000 spores per ml). […] Grading (% of efficacy) is carried out 21 to 28 days after the contamination, in comparison with the control plants.

Sphaerotheca fuliginea = experiment: In vivo preventive test on Sphaerotheca fuliginea (powdery mildew on cucurbits); conditions: 500 ppm; gherkin plants sprayed 24 hours before contamination; grading 12 days after contamination vs control plants
Method: Gherkin plants (“Vert petit de Paris” variety), sown in starter cups on a 50/50 peat soil-pozzolana substrate and grown at 24° C., are treated at the Z11 cotyledon stage by spraying with the active ingredient prepared as described above. Plants, used as controls, are treated with the mixture of acetone/tween/DMSO/water not containing the active material. After 24 hours, the plants are contaminated by spraying the cotyledons with an aqueous suspension of Sphaerotheca fuliginea spores (100 000 spores per ml). The spores are collected from infected plants. […] Grading (% of efficacy) is carried out 12 days after the contamination, in comparison with the control plants.

[1] = format: physicochemical
Botrytis cinerea = experiment: In vivo preventive test on Botrytis cinerea (grey mould); conditions: 500 ppm; gherkin plants sprayed 24 hours before contamination; grading 4-5 days after contamination vs control plants
Method: Gherkin plants (“Vert petit de Paris” variety), sown in starter cups on a 50/50 peat soil-pozzolana substrate and grown at 24° C., are treated at the Z11 cotyledon stage by spraying with the active ingredient prepared as described above. Plants, used as controls, are treated with the mixture of acetone/tween/DMSO/water not containing the active material. After 24 hours, the plants are contaminated by spraying the cotyledons with an aqueous suspension of cryopreserved Botrytis cinerea spores (50 000 spores per ml). The spores are suspended in a nutrient solution composed of 10 g/L of PDB, 50 g/L of D-Fructose, 2 g/L of NH4NO3 and 1 g/L of KH2PO4. The contaminated gherkin plants are incubated at 17° C. and at 80% relative humidity. Grading (% of efficacy) is carried out 4-5 days after the contamination, in comparison with the control plants.

[2] = HPLC on reversed phase columns, method [a]: pH 2.7, 0.1% formic acid in water / acetonitrile, linear gradient 10% to 95% acetonitrile
[3] = method [a]: HPLC/LC-MS on reversed phase at pH 2.7, 0.1% formic acid in water / acetonitrile, gradient 10% to 95% acetonitrile
[4] = method [a]: HPLC/LC-MS on reversed phase at pH 2.7, 0.1% formic acid in water / acetonitrile, linear gradient 10% to 95% acetonitrile

Row | Compound | log P [1, 2] | % of efficacy (protection) (Septoria tritici) [%] | % of efficacy (protection) (Sphaerotheca fuliginea) [%] | % of efficacy (protection) (Botrytis cinerea) [%] | further results
1 | CC(NC(=O)C1(C)CC(c2ccc3ncc(Br)cc3c2)=NO1)c1ccncc1 (stereo not shown) [compound 337] | 1.44[a] | 78 | 88 |  | 
2 | C#Cc1cnc2ccc(C3=NOC(CC)(C(=O)NC4CC4)C3)cc2c1 (racemic) [compound 439] |  | 93 | 78 |  | log P [1, 3]: 2.44[a]
3 | CCn1cc(CNC(=O)C23CCCC2C(c2ccc4ncc(Br)cc4c2)=NO3)c(C)n1 (stereo not shown) [compound 261] | 2.75^[a] | 97 | 85 |  | 
4 | C#Cc1cnc2ccc(C3=NOC(C)(C(=O)NCc4ccccc4Cl)C3)cc2c1 (stereo not shown) [compound 168] |  | 71 |  | 99 | log P [1, 4]: 3.23^[a]
5 | CCOCCCNC(=O)C1(OC)CC(c2cc(C)c3ncc(Br)cc3c2)=NO1 (stereo not shown) [compound 597] | 3.39[a] | 100 |  | 100 | 
6 | CC1(C(=O)NCC(F)(F)F)CC(c2ccc3ncc(Br)cc3c2)=NO1 (stereo not shown) [compound 493] |  | 97 |  | 100 | log P [1, 3]: 2.84[a]
7 | CC(C)NC(=O)C1(C)CC(c2ccc3ncc(C#C[Si](C)(C)C)cc3c2)=NO1 (stereo not shown) [Compound No. 150] |  | 100 | 95 |  | chromatographic logP ([1]; HPLC reversed phase, pH 2.7, 0.1% formic acid in water / acetonitrile, linear gradient 10% to 95% acetonitrile, calibration with alkan-2-ones, read-out: log P (HCOOH)): 4.41
8 | CCn1cc(CNC(=O)C2(OC)CC(c3cc(Cl)c4ncc(Br)cc4c3)=NO2)c(C)n1 (stereo not shown) [compound 566] | 2.78[a] | 100 | 89 |  | 
9 | C#Cc1cnc2ccc(C3=NOC(C)(C(=O)NCC4(C)CCCO4)C3)cc2c1 (stereo not shown) [compound 128] |  | 83 |  | 98 | log P [1, 4]: 2.42^[a]
10 | CC1COCCC1NC(=O)C1(C)CC(c2ccc3ncc(Br)cc3c2)=NO1 (mixture of isomers) [compound 309] |  | 86 | 100 |  | 
11 | Cc1cnc(CNC(=O)C2(C)CC(c3cc(C)c4ncc(Br)cc4c3)=NO2)cn1 (stereo not shown) [compound 537] | 2.84[a] | 100 |  | 100 | 
12 | CCOCCCNC(=O)C1(C(C)C)CC(c2ccc3ncc(Br)cc3c2)=NO1 (stereo not shown) [compound 64] |  | 70 |  | 77 | log P [1, 4]: 3.46^[a]
13 | C#CCONC(=O)C1(C)CC(c2ccc3ncc(C#C)cc3c2)=NO1 (stereo not shown) [compound 503] |  | 71 | 78 |  | log P [1, 3]: 1.95[a]
14 | CC(NC(=O)C1(C)CC(c2ccc3ncc(Br)cc3c2)=NO1)C1CC1 (stereo not shown) [compound 332] | 3.17[a] | 100 | 98 |  | 
15 | CCC(C)NC(=O)C1(C)CC(c2cc3cc(Br)cnc3c(F)c2F)=NO1 (stereo not shown) [compound 22] |  | 83 |  | 93 | Log P ([1]; method [a]: HPLC/LC-MS on reversed phase at pH 2.7, 0.1% formic acid in water and acetonitrile, linear gradient 10% to 95% acetonitrile): 3.31^[a]
16 | CCOc1cnc2ccc(C3=NOC(C)(C(=O)NC(C)C)C3)cc2c1 (stereo not shown) [compound 78] |  | 97 |  | 74 | log P [1, 4]: 2.43^[a]

Row | Compound | log P [1, 2] | % of efficacy (protection) (Septoria tritici) [%] | % of efficacy (protection) (Sphaerotheca fuliginea) [%] | % of efficacy (protection) (Botrytis cinerea) [%] | further results
17 | CCOCC(C)NC(=O)C1(C)CC(c2ccc3ncc(Br)cc3c2)=NO1 (mixture of isomers) [compound 374] |  | 100 | 100 |  | 
18 | CCC1(C(=O)NC2CCC2)CC(c2ccc3ncc(Br)cc3c2)=NO1 (stereo not shown) [compound 498] |  | 71 |  | 92 | log P [1, 3]: 3.31[a]
19 | CC1(CNC(=O)C2(C)CC(c3ccc4ncc(Br)cc4c3)=NO2)CCCO1 (stereo not shown) [compound 131] |  | 83 |  | 92 | log P [1, 4]: 2.73^[a]
20 | CC(C)NC(=O)C1(C2CC2)CC(c2ccc3ncc(Br)cc3c2)=NO1 (stereo not shown) [compound 267] | 3.25[a] | 93 |  | 85 | 
21 | C#Cc1cnc2ccc(C3=NOC(C)(C(=O)NC4CCOCC4)C3)cc2c1 (stereo not shown) [compound 502] |  | 100 |  | 98 | log P [1, 3]: 2.01[a]
22 | C#Cc1cnc2ccc(C3=NOC(C)(C(=O)NCc4cccc(OC(F)(F)F)c4)C3)cc2c1 (stereo not shown) [compound 190] |  | 71 |  | 89 | log P [1, 4]: 3.48^[a]
23 | CCSc1cnc2ccc(C3=NOC(C)(C(=O)NC(C)C)C3)cc2c1 (stereo not shown) [compound 277] | 2.81[a] |  | 71 |  | 
24 | CC1(C(=O)NC2CCC2)CC(c2cc(Cl)c3ncc(Br)cc3c2)=NO1 (stereo not shown) [compound 539] | 3.48[a] | 83 |  | 100 | 
25 | CCC1(C(=O)NC2CC2)CC(c2ccc3ncc(Br)cc3c2)=NO1 (stereo not shown) [compound 69] |  | 97 |  | 99 | log P [1, 4]: 2.75^[a]
26 | CSc1cnc2ccc(C3=NOC(C)(C(=O)NC(C)C)C3)cc2c1 (stereo not shown) [compound 80] |  |  | 93 |  | log P [1, 4]: 2.44^[a]
27 | CCCOc1cnc2ccc(C3=NOC(C)(C(=O)NCc4cn(CC)nc4C)C3)cc2c1 (stereo not shown) [compound 418] |  | 83 |  | 79 | log P [1, 3]: 2.46[a]
28 | CCOCCCNC(=O)C1(C(F)F)CC(c2ccc3ncc(I)cc3c2)=NO1 (stereo not shown) [compound 619] | 3.19[a] | 71 |  | 73 | 
29 | C#Cc1cnc2ccc(C3=NOC(C)(C(=O)NC(C)CC(=O)OCC)C3)cc2c1 (mixture of isomers) [compound 453] |  |  | 88 |  | log P [1, 3]: 2.57[a]
30 | C#Cc1cnc2ccc(C3=NOC(C(=O)NCCCOCC)(C(F)F)C3)cc2c1 (stereo not shown) [Compound No. 615] |  | 79 |  | 95 | chromatographic logP ([1]; pH 2.7): 2.73
31 | C#Cc1cnc2ccc(C3=NOC(C)(C(=O)NCc4cnn(-c5ccccc5)c4)C3)cc2c1 (stereo not shown) [compound 186] |  | 71 |  | 92 | log P [1, 4]: 2.78^[a]
32 | C#Cc1cnc2ccc(C3=NOC(C)(C(=S)NCc4cnc(C)cn4)C3)cc2c1 (stereo not shown) [compound 481] |  | 86 |  | 97 | log P [1, 3]: 2.84[a]

More lines, main results first:

Row | log P [1, 2] | Compound | % of efficacy (protection) (Septoria tritici) [%] | % of efficacy (protection) (Sphaerotheca fuliginea) [%] | % of efficacy (protection) (Botrytis cinerea) [%] | further results
33 | 2.96[a] | C#Cc1cnc2ccc(C3=NOC(C)(C(=O)NC(C)c4ccsc4)C3)cc2c1 (stereo not shown) [compound 336] | 100 | 81 |  | 
34 | 2.39[a] | CCNC(=O)C1(C)CC(c2ccc3ncc(Br)cc3c2)=NO1 (stereo not shown) [compound 528] | 97 |  | 99 | 
35 | 1.75^[a] | C#Cc1cnc2ccc(C3=NOC(C)(C(=O)NC4COC4)C3)cc2c1 (stereo not shown) [compound 238] | 93 |  | 82 | 
36 | 2.77[a] | C#Cc1cnc2ccc(C3=NOC(C)(C(=O)NC(C)C(F)(F)F)C3)cc2c1 (stereo not shown) [compound 343] | 100 | 100 |  | 
37 | 2.26[a] | C#Cc1cnc2ccc(C3=NOC(C)(C(=O)Nc4cn(CC)nc4C)C3)cc2c1 (stereo not shown) [compound 529] | 100 |  | 100 | 
38 | 3.11[a] | CC1(C(=O)NCCCOCC(F)(F)F)CC(c2ccc3ncc(Br)cc3c2)=NO1 (stereo not shown) [compound 323] | 78 | 81 |  | 
39 | 2.75[a] | C#Cc1cnc2ccc(C3=NOC(C)(C(=O)NC(C)(C#N)C4CC4)C3)cc2c1 (stereo not shown) [compound 523] | 97 |  | 73 | 
40 | 2.68[a] | C#Cc1cnc2ccc(C3=NOC(C)(C(=O)NC(C)c4ccc(Cl)nc4)C3)cc2c1 (stereo not shown) [compound 525] | 93 |  | 100 | 

From US9510598B2, “Nitrogen-containing heterocyclic compounds for plant disease control” (BAYER CROPSCIENCE AG, priority 2012, dated 2016)
